The values below come from patent US20250177558A1, “Functionalized Nanoclusters and Their Use in Treating Bacterial Infections” (priority 2022, published 2025).

Series [1] deals with Ofloxacin-induced persister cells of P. aeruginosa (PA14). Kind of series: Bactericidal activity against persister cells. It counts as cell-based, Pseudomonas aeruginosa. The note with it: ATP up to 10 mM, persister cells 10^8 CFU/ml.
Protocol: Therefore, the 48-h-old-stationary phase was treated with Ofloxacin for 24 h to eradicate non-persister cells (FIG. 5A). Ofloxacin was used at 415 µM, corresponding to 30-fold the MIC for the PAO1 wild-type strain. The surviving persister cells were concentrated and redispersed in phosphate-buffered saline (PBS) to prevent persister cells from awakening from their metabolically repressed state.
Persister cells of the P. aeruginosa (PA14) were isolated by treating 250 ml of stationary phase cultures with Ofloxacin (415 µM final concentration). After 24 h treatment, the samples were washed with PBS, and then persister cells were concentred in 10 ml of PBS. The number of persister cells was estimated by serially diluting to determine the colony-forming unit per millilitre (CFU/ml).
All the bactericidal tests were performed on PBS without a carbon source to prevent persister cells from waking up from their low metabolic activity. Ofloxacin-induced persister cells were challenged with antimicrobial agents at the concentrations listed in the text. After the survival bacteria were washed 3× with PBS, the pellet was resuspended in 100 μL of PBS and then spread on an LB plate. The plate was incubated for 72 h at 37° C. before assessing growth.
Series [2] concerns PAO1Cip21. As to the kind of experiment: Disc diffusion susceptibility (cross-resistance). The format is cell-based, Pseudomonas aeruginosa. As to conditions: isolate after 21 passages in subinhibitory Ciprofloxacin; 5 μg discs. (In general: A growth-free zone around the sample is the usual read-out of agar diffusion tests.)
Protocol: In brief, glycerol stocks of each bacteria were streaked on LB plates and grown overnight at 37° C. An inoculum was prepared by diluting several individual colonies in PBS with a 0.5 McFarland Standard turbidity. The inoculum was then spread with sterile cotton swabs on Mueller Hinton agar plates supplemented with 5% sheep blood. Discs containing 5 μg of antipseudomonal drugs were dispensed on the surface of the plate. After 24 h incubation at 37° C., the inhibition zone was measured using a digital calliper.
For series [3], the system named is Acinetobacter baumannii (A. baumannii). The note with it: ref [69], cited from earlier work.
For series [4], the system named is P. aeruginosa (PAO1). The format is cell-based, Pseudomonas aeruginosa. As to conditions: 21 passages in sub-MIC dosing; MIC at passage n/initial MIC.
Protocol: The fold change in minimum inhibitory concentration (MIC) was measured as the ratio between the MIC at passage n/initial MIC.
To test this idea, we repeated our serial passaging study with two biologically independent cultures of PAO1.
Serial passage MICs were performed in 96-well microtiter panels. First, an aliquot of the well with the highest concentration permitting growth was taken and back diluted ( 1/100) in new media from inoculated microtiter panels. […] Panels were incubated according to CLSI guidelines, MICs were recorded, and the next inoculum was prepared from the well containing the highest drug concentration that identically allowed growth as described above. Twenty-one repeat passages were performed.
In series [5] the test system is stationary phase culture of P. aeruginosa (PA14). As to the kind of experiment: Intracellular reactive oxygen species (DCFH-DA). The format is cell-based, Pseudomonas aeruginosa. As to conditions: relative to PBS-treated group. As to the method:
FIGS. 12A-12B. […] (FIG. 12A) Schematic showing how intracellular ROS was determined using the fluorescent probe 2′,7′-dichlorofluorescein diacetate (DCFH-DA).
Cumulatively, the data in this section support that after transiting through OM, AuNC@ATP leads to the fusion of the inner leaflet of OM with the outer leaflet of the cytoplasmic membrane, which leads to bacteria death without cell lysis.
DCFH-DA (2′,7′-dichlorofluorescein diacetate) dye was applied to test the intracellular ROS concentration, which could be cleaved by the intracellular non-specific esterase into the DCFH. DCFH, in the presence of ROS, would be further oxidized into fluorescent DCF (2′,7′-dichlorofluorescein). DCFH-DA in DMSO (10 μM) was added to the treated bacterial solution and further incubated at 37° C., 200 rpm for 15 min. After that, the bacterial cells were centrifuged at 8000 g for 5 min, washed three times with PBS, and resuspended in ultrapure water to the original volume (1 mL). The microplate reader was used to measure the concentration of the produced DCF at the excitation/emission wavelength of 488/525 nm. In this experiment, the fluorescence intensity of DCF directly reflects the amount of ROS generation. […] Finally, the relative ROS production level was calculated by normalizing the ROS level from the treated groups with the production level of the PBS-treated group.

Series [6] has as its system stationary phase culture of gram-negative bacteria. The note with it: conventional antibiotics, refs [54-56]; cited from earlier work.
For series [7] the following is noted: single injection, mice, ref [79], cited from earlier work.

“Also recorded” adds a separate entry of the source. Read-outs that look alike come from different tables or passages of the source.

With `Nc1ncnc2c1ncn2[C@@H]1O[C@H](COP(=O)(O)OP(=O)(O)OP(=O)(O)O)[C@@H](O)[C@H]1O` [ATP, adenosine triphosphate], in series [1], the “eradication of persister cells by ATP ligand alone” value was “No eradication was observed; also recorded: did not show bactericidal activity”. For the compound `NCC[C@H](O)C(=O)N[C@@H]1C[C@H](N)[C@@H](O[C@H]2O[C@H](CN)[C@@H](O)[C@H](O)[C@H]2O)[C@H](O)[C@H]1O[C@H]1O[C@H](CO)[C@@H](O)[C@H](N)[C@H]1O` [Amikacin], the “inhibition zone diameter compared to the ancestor PAO1” value in series [2] is recorded as “decrease in inhibition zone diameter”. Besides, the “persister cells formed by A. baumannii in the presence of antibiotic” value in series [3] is given as 0.07%. Regarding `CO/N=C(\C(=O)N[C@@H]1C(=O)N2C(C(=O)[O-])=C(C[N+]3(C)CCCC3)CS[C@H]12)c1csc(N)n1` [Cefepime], the “inhibition zone diameter compared to the ancestor PAO1” value in series [2] is on record as “decrease in inhibition zone diameter”. As to `CC(C)(O/N=C(\C(=O)N[C@@H]1C(=O)N2C(C(=O)[O-])=C(C[n+]3ccccc3)CS[C@H]12)c1csc(N)n1)C(=O)O` [Ceftazidime], the “inhibition zone diameter compared to the ancestor PAO1” value in series [2] is “decrease in inhibition zone diameter”.

In the case of `O=C(O)c1cn(C2CC2)c2cc(N3CCNCC3)c(F)cc2c1=O` [Ciprofloxacin], the “resistance development: increase in MIC” value in series [4] is “more than 250 fold”.

`C[C@@H](O)[C@H]1C(=O)N2C(C(=O)O)=C(S[C@@H]3CN[C@H](C(=O)N(C)C)C3)[C@H](C)[C@H]12` [Meropenem]: the “inhibition zone diameter compared to the ancestor PAO1” value in series [2] is on record as “decrease in inhibition zone diameter”.

On to `CC1COc2c(N3CCN(C)CC3)c(F)cc3c(=O)c(C(=O)O)cn1c23` (centres unmarked) [Ofloxacin], for which the ROS production in series [5] turned out to be 1.2 fold-change. Also, the “resistance development: increase in MIC” value in series [4] was greater than 1500 fold.

`Cn1c2cccc(=O)c-2nc2ccccc21` [PYO, pyocyanin]: the “increase of persister cells in the presence of PYO” value in series [3] (with amikacin) is 4 fold; in series [3] (with carbenicillin), 3 fold.

Regarding `NC[C@H]1O[C@H](O[C@H]2[C@H](O)[C@@H](O[C@H]3O[C@H](CO)[C@@H](O)[C@H](N)[C@H]3O)[C@H](N)C[C@@H]2N)[C@H](N)C[C@@H]1O` [Tobramycin], the “resistance development: increase in MIC” value in series [4] was “more than 30 fold”. Also, the “inhibition zone diameter compared to the ancestor PAO1” value in series [2] is reported as “decrease in inhibition zone diameter”.

`C[C@H]1[C@H](NC(=O)/C(=N\OC(C)(C)C(=O)O)c2csc(N)n2)C(=O)N1S(=O)(=O)O` [aztreonam]: the “inhibition zone diameter compared to the ancestor PAO1” value in series [2] is “decrease in inhibition zone diameter”. For `CC1(C)S[C@@H]2[C@H](NC(=O)C(C(=O)O)c3ccccc3)C(=O)N2[C@H]1C(=O)O` (some centres unmarked) [carbenicillin], the “persister cells formed by A. baumannii in the presence of antibiotic” value in series [3] is given as 0.02%.

Consider Colistin, for which the cell lysis entry in series [6] is “cause bacteria cell lysis”. Further, in series [2], the “inhibition zone diameter compared to the ancestor PAO1” value was “decrease in inhibition zone diameter”.

Consider Polymyxin-B, for which the “inhibition zone diameter compared to the ancestor PAO1” value in series [2] was “decrease in inhibition zone diameter”. Consider tobramycin sulphate, for which the LD50 (as a rule, the dose expected to kill half of the subjects tested) is 262 mg/kg in series [7] (IP) and 77 mg/kg in series [7] (IV).
